Reference: US11147820B2, “Methods for treating GI tract disorders” (Neurogastrx, Inc., priority 2012, dated 2021)

Tests used:
[1] = test system: cardiac action potentials; test: Canine cardiac action potentials by electrocardiography and telemetry; format: in vivo; conditions: dogs, oral gavage, post-dose period 1-6 hours, vs vehicle
Text: Anesthesia is introduced to dogs. Balanced gaseous anesthesia is used throughout the surgical procedure. Once anesthetized, animals are shaved and surgically scrubbed, encompassing surgical sites of the right inguinal area, chest and right lateral abdomen. Throughout the surgical procedure, animals are monitored for continuous assessment of vital signs. An incision is made along the right medial thigh and the femoral artery exposed by blunt dissection. Another incision is made in the lateral lumbar area cranial to the iliac crest for a tunneling needle to be passed subcutaneously from the incision on the medial thigh to the lumbar incision. A blood pressure catheter is passed through the needle from the lumbar incision and the needle removed. The femoral artery is ligated distally and incised to insert a catheter that is advanced until the tip resided in the femoral artery/abdominal aorta. The catheter is then secured by ligation. The incision in the lumbar area is enlarged and a subcutaneous pocket created in the left dorsal lumbar area to hold the transmitter body. The transmitter (e.g., Data Sciences International, St Paul, Minn., USA) is inserted into the subcutaneous pocket and secured body. Electrocardiography (ECG) leads are positioned. The incision is closed. Postoperative recovery lasts, e.g., about 2 weeks during which supplemental analgesics/antibiotics are administered as needed. Once the postoperative recovery period is complete, the animal is examined for study acceptability by the staff veterinarian and the implanted transmitter signal verified. […] ECGs, heart rate and arterial blood pressure data are recorded 1 hour prior to and then continuously for at least 6 hours following compound and/or vehicle administration. A blood sample for determination of compound plasma concentrations is collected from all subjects at approximately 6 h post-dose. […] Standard ECG intervals (PR, RR, QRS and QT) are automatically measured by the data acquisition system and reported as, e.g., 10 min averages. […] Dose-level averages (and accompanying standard deviation (s.d.) of these baseline-adjusted 10 min averages are calculated across study animals. ANOVA (e.g., repeated measures ANOVA) are applied to these baseline-adjusted averages. Pairwise t-tests are applied within the ANOVA to identify the presence of significant differences of the dose levels relative to vehicle. These t-tests are performed at a 0.05/2=0.025 significance level, so that the overall error rate across the comparisons in a given interval are not higher than 0.05. ECG interval data (reported at 30 min intervals) are analyzed using, e.g., repeated-measures ANOVA techniques similar to the systemic blood pressure and heart rate data described above.

gastric motility = test: Antral manometry in canines (gastric motility); format: in vivo; conditions: for motor dysfunction: canines
Procedure: Two healthy female hound dogs (24-28 kg) were involved in this study. Animals were fed an ad libitum chow diet (LabDiet®). After an overnight fast, the dogs were anesthetized with Pentothal (sodium thiopental, 11 mg/kg IV; Abbott Laboratories, North Chicago, Ill.) and maintained on 2-4% isoflurane (Abbott Laboratories) in oxygen (1 L/min) carrier gases delivered from a ventilator after endotracheal intubation. A cannula was placed in the jejunum 20 cm distal to the pylorus for the assessment of antral motility. Dogs were allowed to recover in their individual cages for 2 weeks. All experiments were performed after the dogs were completed recovered from the surgical procedure. The study was performed according to the National Institutes of Health Guidelines on the use of laboratory animals and approved by the Animal Care and Use Committee of the University of Texas Medical Branch at Galveston, Tex. To investigate the effect of the drugs on antral manometry, the study of each drug dose was done on three randomized sessions on separate days following the consumption of one can of solid dog food: 1) a Control session: In which animals received the vehicle only; 2) Dose I session: in which the lower dose of the drug was used; and 3) Dose II session: in which the higher dose of the drug was used (please refer to table for drug doses). Drug administration was performed according to Table 4, below. [table] Antral manometry was performed as follows. Following an overnight fast, an intraluminal water-perfused manometry catheter was inserted into the antrum through the jejunal cannula. Antral manometry recording was initiated after the consumption of one can of solid food and continued for 3 hours. The catheter contained 3 manometric sensors at a 1 cm interval. Dogs were given 10 minutes of accommodation, prior to the start of the recording. For data analysis, motility index (MI), defined as the integrated area (area under curve—AUC) between baseline and contractions per hour, was calculated. For statistical analysis, the Student's t-test was used for assessment of individual differences between groups (High dose, low dose of each drug) compared to control—Microsoft® Excel 2002). All values are expressed as mean±SEM.

gastric emptying = test: Gastric emptying in rodents, metopimazine; format: in vivo; conditions: preliminary
solid gastric emptying = test: Solid gastric emptying in rats, S-carbidopa; format: in vivo, Sprague-Dawley rats; conditions: 1 mg/kg, initial results
Procedure: Male Sprague-Dawley rats, purchased from the Charles River Lab, were housed in the animal facility of Veterans Research Education Foundation, which was maintained at 22˜24° C., 55% relative humidity, with an automatic 12 h light/dark cycle. The animals received a standard laboratory rat chow and tap water ad libitum. The rats were around 400 g at 14 weeks age when used in gastric emptying study.
S-Carbidopa was purchased from Sigma (#: C1335). Stock solution of S-Carbidopa was prepared at 5 mg/ml using DMSO as solvent. 80 μl stock solution was further diluted into 1 ml distilled water to make 0.4 mg/ml. The effect of S-Carbidopa (1 mg/kg) on solid gastric emptying was studied.
Male SD rats were involved in this study. Rats were fasted in cages with metal wired mesh for 24 hours with free access to water; S-carbidopa (1 mg/kg) was administered to the rats by oral gavage. Control rats were not administered S-carbidopa. 15 minutes following administration, rats were given access to 2 g of rat chow pellets for ten minutes. All rats completely ingested the chow within the 10 minute time frame. Rats were sacrificed by sodium pentobarbital (100 mg/kg) overdose 90 min after feeding. […] Solid gastric emptying was calculated according to the following formula: Gastric emptying (%)=[1−(dried gastric content in g)/2 g]×100. All values are expressed as mean±SEM. […]

| SMILES | peripheral restriction (Peripheral restriction) | QTc intervals [1] | motor dysfunction (gastric motility) | other results |
| --- | --- | --- | --- | --- |
| CS(=O)(=O)c1ccc2c(c1)N(CCCN1CCC(C(=O)O)CC1)c1ccccc1S2 [Metopimazine acid] | peripherally restricted agents | no significant increases | – | – |
| CS(=O)(=O)c1ccc2c(c1)N(CCCN1CCC(C(N)=O)CC1)c1ccccc1S2 [Metopimazine, 1-[3-[2-(methylsulfonyl)-10H-phenothiazin-10-yl]propyl]-piperidine-4-carboxamide] | peripherally restricted agents | no significant increases | no motor dysfunction was observed | increase in gastric emptying as compared to vehicle control (gastric emptying; 3 mg/kg): about 40%; increase in gastric emptying as compared to vehicle control, overall effect (gastric emptying; pooling the 3 mg/kg and 10 mg/kg doses): about 20% |
| C[C@@](Cc1ccc(O)c(O)c1)(NN)C(=O)O [S-Carbidopa, (2S)-3-(3,4-dihydroxyphenyl)-2-hydrazino-2-methylpropanoic acid] | – | no significant increases | no motor dysfunction was observed | motility index (MI) (gastric motility; 1 mg/kg IV, 15 min prior to meal, all three channels, p=0.05): robustly increased MI; solid gastric emptying compared to control rats (solid gastric emptying): improves solid gastric emptying |
| CN(CCOc1ccc(NS(C)(=O)=O)cc1)CCc1ccc(NS(C)(=O)=O)cc1 [dofetilide] | – | increased | – | – |
| Cl.NCCc1ccc(O)c(O)c1 [dopamine hydrochloride] | – | – | – | motility index (MI) (gastric motility; 50 mg/canine IV, immediately before meal, all channels, p=0.06): decreased MI |
